Test results taken from patent publication US11312719B2, “9-substituted amino triazolo quinazoline derivatives as adenosine receptor antagonists, pharmaceutical compositions and their use” (Merck Sharp & Dohme Corp., priority 2018, dated 2022).

Assays:
[1] = molecular target: human A2b adenosine receptor (Homo sapiens (Human), UniProt P29275); assay: A2b radioligand filtration binding assay; settings: for IC50: membranes from HEK293 cells expressing human A2b receptor
Protocol: Measurement of A2b Binding Affinity
The reported affinity of the compounds of the invention for the human A2b adenosine receptor was determined experimentally using a radioligand filtration binding assay. This assay measures the amount of binding of a tritiated proprietary A2b receptor antagonist, in the presence and absence of a compound of the invention, to membranes made from HEK293 cells recombinantly expressing the human A2b adenosine receptor (Perkin Elmer, Cat. No. ES-013-C).
148 μL (135 μg/mL) membranes and 2 μL test compounds were transferred to individual wells of a 96-well polypropylene assay plate and incubated for 15 to 30 minutes at room temperature with agitation. Tritiated radioligand was diluted to a concentration of 14 nM in assay buffer (phosphate buffered saline without Magnesium and Calcium, pH 7.4; GE Healthcare Life Sciences, Cat. No. SH30256.01) and then 50 μL of the solution were transferred to each well of the assay plate. To define total and non-specific binding, wells containing 1% DMSO and 20 μM N-ethylcarboxamidoadenosine (Tocris Bioscience, Cat. No. 1691) respectively, were also included. The wells of the assay plate were incubated at room temperature for 60 minutes with agitation, then filtered using a FilterMate Harvester® (Perkin Elmer) or similar equipment through a UniFilter-96® PEI coated plate (Perkin Elmer Cat. No. 6005274 or 6005277). Filtering was achieved by aspirating the contents of the assay plate for 5 seconds, then washing and aspirating the contents three times with ice-cooled wash buffer (assay buffer supplemented with 0.0025% Brij58) and allowing the vacuum manifold to dry the plate for 30 seconds. The filter plate was incubated for at least 1 hour at 55° C. and allowed to dry. The bottom of the filter plate was then sealed with backing tape. 40 μL Ultima Gold™ (Perkin Elmer, Cat. No. 6013329) was added to each well of the filter plate and the top of the plate was sealed with TopSeal-A PLUS® clear plate seal (Perkin Elmer, Cat. No. 6050185). The plates were then incubated for at least 20 minutes, and then the amount of radioactivity remaining in each well was determined using a TopCount® (Perkin Elmer) scintillation counter. After normalization to total and non-specific binding, the percent effect at each compound concentration was calculated. The plot of percent effect versus the log of compound concentration was analyzed electronically using a 4-parameter logistic fit based on the Levenberg-Marquardt algorithm to generate IC50 values.

[2] = molecular target: human A2a adenosine receptor (Homo sapiens (Human), UniProt P29274); assay: A2a receptor affinity radioligand binding assay ([3H] SCH58261); settings: membranes from HEK293 or CHO cells expressing human A2a receptor
Protocol: The A2a receptor affinity binding assay measured the amount of binding of a tritiated ligand with high affinity for the A2a adenosine receptor to membranes made from HEK293 or CHO cells recombinantly expressing the human A2a adenosine receptor, in the presence of varying concentrations of a compound of the invention.
Measurement of A2a Binding Affinity Using Radioligand Binding
148 μL (5 μg/mL) membranes (Perkin Elmer, Cat. No. RBHA2aM400UA) and 2 μL compounds of the invention to be tested (test compound) were transferred to individual wells of a 96-well polypropylene assay plate and incubated for 15 to 30 minutes at room temperature. [^3H] SCH58261 ((7-(2-phenylethyl)-5-amino-2-(2-furyl)-pyrazolo-[4,3-e]-1,2,4-triazolo[1,5-c]pyrimidine)) was diluted in assay buffer (50 mM Tris pH 7.4, 10 mM MgCl2, 0.005% Tween20) to a concentration of 4 nM and 50 μL transferred to each well of the assay plate. To define total and non-specific binding, wells containing 1% DMSO and 1 μM ZM241385 (Tocris Bioscience, Cat. No. 1036) respectively, were also included. The assay plate was incubated at room temperature for 60 minutes with agitation. Using a FilterMate Harvester® (Perkin Elmer), the contents of the assay plate were filtered through a UniFilter-96® PEI coated plate (Perkin Elmer Cat. No. 6005274 or 6005277). Filtering was achieved by aspirating the contents of the assay plate for 5 seconds, then washing and aspirating the contents three times with ice-cooled wash buffer (50 mM Tris-HCl pH 7.4, 150 mM NaCl) and allowing the vacuum manifold to dry the plate for 30 seconds. The filter plate was incubated for at least 1 hour at 55° C., and allowed to dry. The bottom of the filter plate was sealed with backing tape. 40 μL Ultima Gold™ (Perkin Elmer, Cat. No. 6013329) was added to each well of the filter plate and the top of the plate was sealed with TopSeal-A PLUS® clear plate seal (Perkin Elmer, Cat. No. 6050185). The plate was incubated for at least 20 minutes, and then the amount of radioactivity remaining in each well was determined using a TopCount® (Perkin Elmer) scintillation counter. After normalization to total and non-specific binding, the percent effect at each compound concentration was calculated. The plot of percent effect versus the log of compound concentration was analyzed electronically using a 4-parameter logistic fit based on the Levenberg-Marquardt algorithm to generate IC50 values.

Sequence of human A2b adenosine receptor (P29275 whole entry): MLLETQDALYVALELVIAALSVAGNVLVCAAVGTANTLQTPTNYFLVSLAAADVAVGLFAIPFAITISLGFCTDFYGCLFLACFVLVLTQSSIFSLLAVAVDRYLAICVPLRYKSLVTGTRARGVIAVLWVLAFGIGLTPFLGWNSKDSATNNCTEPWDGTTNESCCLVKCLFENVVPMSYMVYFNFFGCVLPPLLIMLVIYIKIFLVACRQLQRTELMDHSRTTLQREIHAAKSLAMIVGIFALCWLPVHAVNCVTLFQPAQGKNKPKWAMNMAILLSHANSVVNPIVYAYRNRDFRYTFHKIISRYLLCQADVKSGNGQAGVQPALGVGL
Sequence of human A2a adenosine receptor (P29274 whole entry): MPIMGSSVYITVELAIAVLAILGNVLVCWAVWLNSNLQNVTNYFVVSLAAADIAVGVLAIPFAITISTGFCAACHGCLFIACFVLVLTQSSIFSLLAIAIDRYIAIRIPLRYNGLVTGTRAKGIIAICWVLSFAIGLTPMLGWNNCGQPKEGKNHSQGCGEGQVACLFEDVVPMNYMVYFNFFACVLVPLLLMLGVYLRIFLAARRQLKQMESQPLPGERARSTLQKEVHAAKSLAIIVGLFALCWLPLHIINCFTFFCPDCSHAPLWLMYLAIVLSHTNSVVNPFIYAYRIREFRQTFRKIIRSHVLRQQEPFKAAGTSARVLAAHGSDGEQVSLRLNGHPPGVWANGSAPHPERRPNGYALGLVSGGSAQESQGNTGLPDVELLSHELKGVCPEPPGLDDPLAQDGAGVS

IC50 [1] [nM]	IC50 [2] [nM]	A2B binding % Inh. @ 10000 nM [1] [% Inh.]	Structure (SMILES)
153	0.9	–	COc1cc(F)cc2c1nc(N)n1nc([C@@H]3C[C@@H](F)CN(c4cnn(CC(C)(C)O)c4)C3)nc21 (single isomer, unassigned) [Example 74, 1-(4-((3R,5R or 3S,5S)-3-(5-amino-9-fluoro-7-methoxy-[1,2,4]triazolo[1,5-c]quinazolin-2-yl)-5-fluoropiperidin-1-yl)-1H-pyrazol-1-yl)-2-methylpropan-2-ol]
–	56.9	54	COc1cc(F)cc2c1nc(N)n1nc([C@H]3C[C@H](F)CN(c4cnn(CC(C)(C)O)c4)C3)nc21 (single isomer, unassigned) [Example 75, 1-(4-((3S,5S or 3R,5R)-3-(5-amino-9-fluoro-7-methoxy-[1,2,4]triazolo[1,5-c]quinazolin-2-yl)-5-fluoropiperidin-1-yl)-1H-pyrazol-1-yl)-2-methylpropan-2-ol]
–	256	34	COc1cc(F)cc2c1nc(N)n1nc(C3CC(F)CN(c4cn(CC(C)(C)O)nc4C)C3)nc21 (single isomer, unassigned) [Example 76, 1-(4-((3R,5R or 3S,5S)-3-(5-amino-9-fluoro-7-methoxy-[1,2,4]triazolo[1,5-c]quinazolin-2-yl)-5-fluoropiperidin-1-yl)-3-methyl-1H-pyrazol-1-yl)-2-methylpropan-2-ol]
108	0.4	–	COc1cc(F)cc2c1nc(N)n1nc(C3CC(F)CN(c4cn(CC(C)(C)O)nc4C)C3)nc21 (single isomer, unassigned) [Example 77, 1-(4-((3S,5S or 3R,5R)-3-(5-amino-9-fluoro-7-methoxy-[1,2,4]triazolo[1,5-c]quinazolin-2-yl)-5-fluoropiperidin-1-yl)-3-methyl-1H-pyrazol-1-yl)-2-methylpropan-2-ol]
165	0.3	–	COc1cc(F)cc2c1nc(N)n1nc([C@@H]3CCCN(c4cn(C(C)C(C)(C)O)nc4C)C3)nc21 (single isomer, unassigned) [Example 86, (S or R)-3-(4-((R)-3-(5-amino-9-fluoro-7-methoxy-[1,2,4]triazolo[1,5-c]quinazolin-2-yl)piperidin-1-yl)-3-methyl-1H-pyrazol-1-yl)-2-methylbutan-2-ol]
134	0.4	–	COc1cc(F)cc2c1nc(N)n1nc([C@@H]3CCCN(c4cn(C(C)C(C)(C)O)nc4C)C3)nc21 (single isomer, unassigned) [Example 87, (R or S)-3-(4-((R)-3-(5-amino-9-fluoro-7-methoxy-[1,2,4]triazolo[1,5-c]quinazolin-2-yl)piperidin-1-yl)-3-methyl-1H-pyrazol-1-yl)-2-methylbutan-2-ol]

Second part, the molecule before the results:

Structure (SMILES)	IC50 [1] [nM]	IC50 [2] [nM]	A2B binding % Inh. @ 10000 nM [1] [% Inh.]
COc1cc(F)cc2c1nc(N)n1nc(C3CC(F)CN(c4cnn(CC5(O)CCC5)c4)C3)nc21 (single isomer, unassigned) [Example 78, 1-(4-((3R,5R or 3S,5S)-3-(5-amino-9-fluoro-7-methoxy-[1,2,4]triazolo[1,5-c]quinazolin-2-yl)-5-fluoropiperidin-1-yl)-1H-pyrazol-1-yl)methyl)cyclobutan-1-ol]	234	0.9	–
COc1cc(F)cc2c1nc(N)n1nc(C3CC(F)CN(c4cnn(CC5(O)CCC5)c4)C3)nc21 (single isomer, unassigned) [Example 79, 1-(4-((3S,5S or 3R,5R)-3-(5-amino-9-fluoro-7-methoxy-[1,2,4]triazolo[1,5-c]quinazolin-2-yl)-5-fluoropiperidin-1-yl)-1H-pyrazol-1-yl)methyl)cyclobutan-1-ol]	3140	16	–
COc1cc2nc(N)n3nc([C@@H]4C[C@@H](F)CN(c5cnn(CC(C)(C)O)c5)C4)nc3c2cc1F (single isomer, unassigned) [Example 80, 1-(4-((3R,5R or 3S,5S)-3-(5-amino-9-fluoro-8-methoxy-[1,2,4]triazolo[1,5-c]quinazolin-2-yl)-5-fluoropiperidin-1-yl)-1H-pyrazol-1-yl)-2-methylpropan-2-ol]	404	11.6	–
COc1cc2nc(N)n3nc([C@H]4C[C@H](F)CN(c5cnn(CC(C)(C)O)c5)C4)nc3c2cc1F (single isomer, unassigned) [Example 81, 1-(4-((3S,5S or 3R,5R)-3-(5-amino-9-fluoro-8-methoxy-[1,2,4]triazolo[1,5-c]quinazolin-2-yl)-5-fluoropiperidin-1-yl)-1H-pyrazol-1-yl)-2-methylpropan-2-ol]	6580	121	–
COc1cc2nc(N)n3nc([C@@H]4CCCN(c5cnn([C@@H]6CCC[C@@]6(C)O)c5)C4)nc3c2cc1F (single isomer, unassigned) [Example 82, (1R or 1S,2R or 2S)-2-(4-((R)-3-(5-amino-9-fluoro-8-methoxy-[1,2,4]triazolo[1,5-c]quinazolin-2-yl)piperidin-1-yl)-1H-pyrazol-1-yl)-1-methylcyclopentan-1-ol]	63	4.9	–
COc1cc2nc(N)n3nc([C@@H]4CCCN(c5cnn([C@H]6CCC[C@]6(C)O)c5)C4)nc3c2cc1F (single isomer, unassigned) [Example 83, (1S or 1R,2S or 2R)-2-(4-((R)-3-(5-amino-9-fluoro-8-methoxy-[1,2,4]triazolo[1,5-c]quinazolin-2-yl)piperidin-1-yl)-1H-pyrazol-1-yl)-1-methylcyclopentan-1-ol]	113	2.7	–
COc1cc2nc(N)n3nc([C@@H]4CCCN(c5cnn(C6CCCC6O)c5)C4)nc3c2cc1F (single isomer, unassigned) [Example 84, (1R or 1S,2R or 2S)-2-(4-((R)-3-(5-amino-9-fluoro-8-methoxy-[1,2,4]triazolo[1,5-c]quinazolin-2-yl)piperidin-1-yl)-1H-pyrazol-1-yl)cyclopentan-1-ol]	117	2.3	–
COc1cc2nc(N)n3nc([C@@H]4CCCN(c5cnn(C6CCCC6O)c5)C4)nc3c2cc1F (single isomer, unassigned) [Example 85, (1S or 1R,2S or 2R)-2-(4-((R)-3-(5-amino-9-fluoro-8-methoxy-[1,2,4]triazolo[1,5-c]quinazolin-2-yl)piperidin-1-yl)-1H-pyrazol-1-yl)cyclopentan-1-ol]	192	5.2	–
COc1cc2nc(N)n3nc(C4CCC(C)N(c5cnn(C6CCCC6O)c5)C4)nc3c2cc1F (single isomer, unassigned) [Example 88, (1R or 1S,2R or 2S)-2-(4-((2S,5R or 2R,5S)-5-(5-amino-9-fluoro-8-methoxy-[1,2,4]triazolo[1,5-c]quinazolin-2-yl)-2-methylpiperidin-1-yl)-1H-pyrazol-1-yl)cyclopentan-1-ol]	1.8	0.1	–
